Results: US12162893B2 (Erasca, Inc., priority 2020, dated 2024)

What follows are molecules tested against T1, mutant G12C K-RAS (Homo sapiens, UniProt P01116, G12C) (assay: covalent adduct formation (CAF) with mutant G12C K-RAS). Conditions: Table 1, Pyrimidone Core-Morpholine Unsubstituted; after 60 minutes at 10 micromolar.
T1 construct: made in house; host or cells: E. coli BL21
Assay type: binding
Method: Embodiments disclosed herein are further illustrated by the following examples in Tables 1-4 and the Examples hereinbelow. The Tables indicate the compound number, structure, the observed mass spectral molecular weight peak, and covalent adduct formation (CAF) with a mutant G12C K-RAS after 60 minutes at a concentration of 10 micromolar.

% CAF (60 min) | Compound
8.5% | C=C(F)C(=O)N1CCN(c2nc(=O)n3c4c(c(-c5c(O)cccc5F)c(Cl)cc24)OCC3)C[C@@H]1CC#N (atropisomer, axis not shown) [Example 10, 2-((2S)-4-(9-chloro-10-(2-fluoro-6-hydroxyphenyl)-5-oxo-3,5-dihydro-2H-[1,4]oxazino[2,3,4-ij]quinazolin-7-yl)-1-(2-fluoroacryloyl)piperazin-2-yl)acetonitrile]

Same assay, conditions: Table 6; 10 μM, 1 h

Compound | % CAF @ 10 μM,1 h
C=CC(=O)N1CCN(c2nc(=O)n3c4c(c(-c5c(O)cccc5F)c(Cl)cc24)OC[C@H]3CN2CCC(F)(F)C2)[C@@H](C)C1 (atropisomer, axis not shown) [Example 227, (3R,10R)-7-((S)-4-acryloyl-2-methylpiperazin-1-yl)-9-chloro-3-((3,3-difluoropyrrolidin-1-yl)methyl)-10-(2-fluoro-6-hydroxyphenyl)-2,3-dihydro-5H-[1,4]oxazino[2,3,4-ij]quinazolin-5-one] | 0%
C=CC(=O)N1CCN(c2nc(=O)n3c4c(c(-c5c(O)cccc5F)c(Cl)cc24)OC[C@@H]3CN2CCC(F)(F)C2)[C@@H](C)C1 (atropisomer, axis not shown) [Example 228, (3S,10S)-7-((S)-4-acryloyl-2-methylpiperazin-1-yl)-9-chloro-3-((3,3-difluoropyrrolidin-1-yl)methyl)-10-(2-fluoro-6-hydroxyphenyl)-2,3-dihydro-5H-[1,4]oxazino[2,3,4-ij]quinazolin-5-one] | 98%
C=CC(=O)N1CCN(c2nc(=O)n3c4c(c(-c5c(O)cccc5F)c(Cl)cc24)OC[C@@H]3CN2CCC(F)(F)C2)[C@@H](C)C1 (atropisomer, axis not shown) [Example 229, (3S,10R)-7-((S)-4-acryloyl-2-methylpiperazin-1-yl)-9-chloro-3-((3,3-difluoropyrrolidin-1-yl)methyl)-10-(2-fluoro-6-hydroxyphenyl)-2,3-dihydro-5H-[1,4]oxazino[2,3,4-ij]quinazolin-5-one] | 1.6%
C=CC(=O)N1CCN(c2nc(=O)n3c4c(c(-c5c(O)cccc5F)c(Cl)cc24)OC[C@H]3CN2CCC(F)(F)C2)[C@@H](C)C1 (atropisomer, axis not shown) [Example 230, (3R,10S)-7-((S)-4-acryloyl-2-methylpiperazin-1-yl)-9-chloro-3-((3,3-difluoropyrrolidin-1-yl)methyl)-10-(2-fluoro-6-hydroxyphenyl)-2,3-dihydro-5H-[1,4]oxazino[2,3,4-ij]quinazolin-5-one] | 75.9%
C=CC(=O)N1C[C@H](C)N(c2nc(=O)n3c4c(c(-c5c(O)cccc5F)c(Cl)cc24)OC[C@@H]3CN(C)CC(F)(F)F)C[C@H]1C (atropisomer, axis not shown) [Example 239, (3S,10R)-7-((2S,5R)-4-acryloyl-2,5-dimethylpiperazin-1-yl)-9-chloro-10-(2-fluoro-6-hydroxyphenyl)-3-((methyl(2,2,2-trifluoroethyl)amino)methyl)-2H-[1,4]oxazino[2,3,4-ij]quinazolin-5(3H)-one] | 3%
C=CC(=O)N1C[C@H](C)N(c2nc(=O)n3c4c(c(-c5c(O)cccc5F)c(Cl)cc24)OC[C@@H]3CN(C)CC(F)(F)F)C[C@H]1C (atropisomer, axis not shown) [Example 240, (3S,10S)-7-((2S,5R)-4-acryloyl-2,5-dimethylpiperazin-1-yl)-9-chloro-10-(2-fluoro-6-hydroxyphenyl)-3-((methyl(2,2,2-trifluoroethyl)amino)methyl)-2H-[1,4]oxazino[2,3,4-ij]quinazolin-5(3H)-one] | 82.1%
C=CC(=O)N1C[C@H](C)N(c2nc(=O)n3c4c(c(-c5c(O)cccc5F)c(Cl)cc24)OC[C@H]3CN(C)CC(F)(F)F)C[C@H]1C (atropisomer, axis not shown) [Example 241, (3R,10R)-7-((2S,5R)-4-acryloyl-2,5-dimethylpiperazin-1-yl)-9-chloro-10-(2-fluoro-6-hydroxyphenyl)-3-((methyl(2,2,2-trifluoroethyl)amino)methyl)-2H-[1,4]oxazino[2,3,4-ij]quinazolin-5(3H)-one] | 0%
C=CC(=O)N1C[C@H](C)N(c2nc(=O)n3c4c(c(-c5c(O)cccc5F)c(Cl)cc24)OC[C@H]3CN(C)CC(F)(F)F)C[C@H]1C (atropisomer, axis not shown) [Example 242, (3R,10S)-7-((2S,5R)-4-acryloyl-2,5-dimethylpiperazin-1-yl)-9-chloro-10-(2-fluoro-6-hydroxyphenyl)-3-((methyl(2,2,2-trifluoroethyl)amino)methyl)-2H-[1,4]oxazino[2,3,4-ij]quinazolin-5(3H)-one] | 63.1%
C=CC(=O)N1C[C@H](C)N(c2nc(=O)n3c4c(c(-c5c(O)cccc5F)c(Cl)cc24)OC[C@@H]3Cn2cccn2)C[C@H]1C (atropisomer, axis not shown) [Example 243, (3S,10S)-3-((1H-pyrazol-1-yl)methyl)-7-((2S,5R)-4-acryloyl-2,5-dimethylpiperazin-1-yl)-9-chloro-10-(2-fluoro-6-hydroxyphenyl)-2H-[1,4]oxazino[2,3,4-ij]quinazolin-5(3H)-one] | 80.6%

Continued, values first:

% CAF @ 10 μM,1 h | Compound
0% | C=CC(=O)N1C[C@H](C)N(c2nc(=O)n3c4c(c(-c5c(O)cccc5F)c(Cl)cc24)OC[C@@H]3CN2CCOCC2)C[C@H]1C (atropisomer, axis not shown) [Example 208, (3R,10R)-7-((2S,5R)-4-acryloyl-2,5-dimethylpiperazin-1-yl)-9-chloro-10-(2-fluoro-6-hydroxyphenyl)-3 - (morpholinomethyl)-2,3-dihydro-5H-[1,4]oxazino[2,3,4-ij]quinazolin-5-one]
85% | C=CC(=O)N1C[C@H](C)N(c2nc(=O)n3c4c(c(-c5c(O)cccc5F)c(Cl)cc24)OC[C@H]3CN2CCOCC2)C[C@H]1C (atropisomer, axis not shown) [Example 209, (3R,10S)-7-((2S,5R)-4-acryloyl-2,5-dimethylpiperazin-1-yl)-9-chloro-10-(2-fluoro-6-hydroxyphenyl)-3-(morpholinomethyl)-2,3-dihydro-5H-[1,4]oxazino[2,3,4-ij]quinazolin-5-one]
0% | C=CC(=O)N1C[C@H](C)N(c2nc(=O)n3c4c(c(-c5c(O)cccc5F)c(Cl)cc24)OC[C@H]3CN2CCOCC2)C[C@H]1C (atropisomer, axis not shown) [Example 210, (3R,10R)-7-((2S,5R)-4-acryloyl-2,5-dimethylpiperazin-1-yl)-9-chloro-10-(2-fluoro-6-hydroxyphenyl)-3-(morpholinomethyl)-2,3-dihydro-5H-[1,4]oxazino[2,3,4-ij]quinazolin-5-one]
1.4% | C=CC(=O)N1C[C@H](C)N(c2nc(=O)n3c4c(c(-c5c(O)cccc5F)c(Cl)cc24)OC[C@H]3CN2CCC(F)(F)C2)C[C@H]1C (atropisomer, axis not shown) [Example 222, (3R,10S)-7-((2S,5R)-4-acryloyl-2,5-dimethylpiperazin-1-yl)-9-chloro-3-((3,3-difluoropyrrolidin-1-yl)methyl)-10-(2-fluoro-6-hydroxyphenyl)-2,3-dihydro-5H-[1,4]oxazino[2,3,4-ij]quinazolin-5-one]
4.4% | C=CC(=O)N1C[C@H](C)N(c2nc(=O)n3c4c(c(-c5c(O)cccc5F)c(Cl)cc24)OC[C@@H]3CCCN2CCOCC2)C[C@H]1C (atropisomer, axis not shown) [Example 225, (3S,10R)-7-((2S,5R)-4-acryloyl-2,5-dimethylpiperazin-1-yl)-9-chloro-10-(2-fluoro-6-hydroxyphenyl)-3-(3-morpholinopropyl)-2,3-dihydro-5H-[1,4]oxazino[2,3,4-ij]quinazolin-5-one]
97.8% | C=CC(=O)N1C[C@H](C)N(c2nc(=O)n3c4c(c(-c5c(O)cccc5F)c(Cl)cc24)OC[C@@H]3CCCN2CCOCC2)C[C@H]1C (atropisomer, axis not shown) [Example 226, (3S,10S)-7-((2S,5R)-4-acryloyl-2,5-dimethylpiperazin-1-yl)-9-chloro-10-(2-fluoro-6-hydroxyphenyl)-3-(3-morpholinopropyl)-2,3-dihydro-5H-[1,4]oxazino[2,3,4-ij]quinazolin-5-one]
4.4% | C=CC(=O)N1C[C@H](C)N(c2nc(=O)n3c4c(c(-c5c(O)cccc5F)c(Cl)cc24)OC[C@@H]3Cn2cccn2)C[C@H]1C (atropisomer, axis not shown) [Example 244, (3S,10R)-3-((1H-pyrazol-1-yl)methyl)-7-((2S,5R)-4-acryloyl-2,5-dimethylpiperazin-1-yl)-9-chloro-10-(2-fluoro-6-hydroxyphenyl)-2H-[1,4]oxazino[2,3,4-ij]quinazolin-5(3H)-one]
0% | C=CC(=O)N1C[C@H](C)N(c2nc(=O)n3c4c(c(-c5c(O)cccc5F)c(Cl)cc24)OC[C@H]3Cn2cccn2)C[C@H]1C (atropisomer, axis not shown) [Example 245, (3R,10R)-3-((1H-pyrazol-1-yl)methyl)-7-((2S,5R)-4-acryloyl-2,5-dimethylpiperazin-1-yl)-9-chloro-10-(2-fluoro-6-hydroxyphenyl)-2H-[1,4]oxazino[2,3,4-ij]quinazolin-5(3H)-one]
97.4% | C=CC(=O)N1C[C@H](C)N(c2nc(=O)n3c4c(c(-c5c(O)cccc5F)c(Cl)cc24)OC[C@H]3Cn2cccn2)C[C@H]1C (atropisomer, axis not shown) [Example 246, (3R,10S)-3-((1H-pyrazol-1-yl)methyl)-7-((2S,5R)-4-acryloyl-2,5-dimethylpiperazin-1-yl)-9-chloro-10-(2-fluoro-6-hydroxyphenyl)-2H-[1,4]oxazino[2,3,4-ij]quinazolin-5(3H)-one]
